Here are results for 2 compounds from publication PMC5392048 (Journal of Central Nervous System Disease, 2017).

Data set [1] can be described thus: Unbound plasma concentration-time profile of the inhibitors in rats. Type of data set: in vivo, rat.
The subject of data set [2] is P-gp. As to conditions: read-out: inhibitory concentration (Ki) for P-gp; cited from earlier work.
For data set [3], the system named is OATP1B1. The note with it: read-out: Ki for the uptake transporters (OATP1B1); cited from earlier work.

Consider `COc1cc2c(cc1OC)CN(CCc1ccc(NC(=O)c3cccc4c(=O)c5cccc(OC)c5[nH]c34)cc1)CC2` [elacridar], for which the “time unbound plasma level maintained above Ki (Iu/Ki > 1)” value in data set [1] (elacridar 5 mg/kg iv, rat plasma, Ki for P-gp) is recorded as ~ 15 hours. Also, the “unbound peak plasma concentration relative to Ki for P-gp” value in data set [1] (elacridar 5 mg/kg iv, rat plasma, peak concentration) is given as […]. Moreover, the Ki in data set [2] is […].
Turning to `CO[C@H]1/C=C/O[C@@]2(C)Oc3c(C)c(O)c4c(O)c(c(/C=N/N5CCN(C)CC5)c(O)c4c3C2=O)NC(=O)/C(C)=C\C=C\[C@H](C)[C@H](O)[C@@H](C)[C@@H](O)[C@@H](C)[C@H](OC(C)=O)[C@@H]1C` [rifampicin], in data set [1] (rifampicin 30 mg/kg oral, rat), the “maximum unbound concentration in plasma” value is recorded as 1.8 µM. In data set [3], the Ki is 1.1 µM.
